These results are taken from the SangsterLogP compilation.

In the case of `O=C(Nc1ccccc1)C1CCCCCC1(F)F` (stereo not given), the logP stood at 2.9.

As for `O=C(c1ccccc1)N1CC2CC(F)(F)CC(C1)C2(F)F`, the logP was 1.84. `O=C(Nc1ccccc1)C1CCCC(F)(F)CC1` (stereo not given) displayed a logP of 2.95. Take `O=C(Nc1ccccc1)[C@@H]1C[C@H]1C(F)F`: the logP was 2.28. Then `O=C(N[C@H]1C[C@@H]2[C@H](C1)C2(F)F)c1ccccc1`, with 2.47; and `O=C(Nc1ccccc1)[C@@H]1C[C@H]1C(F)(F)F`, with 2.98; and `O=C(c1ccccc1)N1CCC(F)(F)C1`, with 1.35. For `O=C(N[C@@H]1CC[C@H]1F)c1ccccc1`, the logP came to 1.64. As for `CC12CCC(CC1)CN2C(=O)c1ccccc1`, the logP worked out at 2.66. Turning to `O=C(NCCCC(F)(F)F)c1ccccc1`, the logP was 2.28. `O=C(Nc1ccccc1)C1CC1` had a logP of 1.92. `O=C(N[C@H]1C[C@H](F)C1)c1ccccc1` registered a logP of 1.71. Under `O=C(N[C@H]1C[C@@H](CF)C1)c1ccccc1` stands 1.77. Under `O=C(Nc1ccccc1)C1CCCCC1(F)F` (stereo not given) stands 2.5; under `O=C(NCC(F)F)c1ccccc1`, 1.37; under `O=C(N[C@@H]1CC[C@@H]1F)c1ccccc1`, 1.57.

The molecule `O=C(c1ccccc1)N1CCCC(F)C1` (stereo not given) returned a logP of 1.26. Regarding `O=C(Nc1ccccc1)[C@H]1C[C@H](C(F)F)C1`, the log partition coefficient (logP) came out at 2.39.

The molecule `O=C(NC1CCCCC1)c1ccccc1` displayed a logP of 2.72. As for `O=C(Nc1ccccc1)[C@@H]1C[C@@H]1CF`, the logP stood at 1.88. `O=C(c1ccccc1)N1CC(F)(F)C1` gave a logP of 1.34. Molecule `O=C(N[C@H]1C[C@H](C(F)(F)F)C1)c1ccccc1` yielded a logP of 2.82.

Regarding `CCCCNC(=O)c1ccccc1`, the logP amounted to 2.23.

On to `O=C(Nc1ccccc1)[C@H]1C[C@@H]2[C@H](C1)C2(F)F`, for which the logP was determined as 2.37. The molecule `O=C(c1ccccc1)N1C[C@@H](F)[C@H](F)C1` came in with a logP of 1.08. `CNC(=O)c1ccccc1` yielded a logP of 1.03. This logP and that of the molecule before are within 0.2 log units of each other. Then `O=C(N[C@@H]1C[C@H]1C(F)F)c1ccccc1`, with 1.64; and `O=C(Nc1ccccc1)[C@H]1C[C@H]1C(F)F`, with 2.35; and `O=C(Nc1ccccc1)C1CCCC1`, with 2.68. The molecule `O=C(c1ccccc1)N1CCCC(C(F)(F)F)C1` (stereo not given) displayed a logP of 2.21.

As for `O=C(N[C@H]1C[C@H](C(F)F)C1)c1ccccc1`, the logP amounted to 1.97. Then `O=C(Nc1ccccc1)C1CCC1`, with 2.26. Consider `O=C(Nc1ccccc1)C1(CF)CCC1`, for which the logP is 1.88. Consider `O=C(c1ccccc1)N1CCCCC1C(F)(F)F` (stereo not given), for which the logP was determined as 2.54. Under `O=C(c1ccccc1)N1CC2CS(=O)(=O)CC(C1)C2(F)F` stands 0.2; under `O=C(Nc1ccccc1)[C@H]1C[C@@H](CF)C1`, 1.96. Molecule `O=C(c1ccccc1)N1CCCC(C(F)F)C1` (stereo not given) gave a logP of 1.73. Molecule `O=C(NC1CC2(CCC2)C1)c1ccccc1` showed a logP of 3.26.

Turning to `O=C(NC1CCC(F)(F)C1)c1ccccc1` (stereo not given), the lipophilicity (logP) stood at 2.02. `O=C(Nc1ccccc1)[C@H]1C[C@H](CF)C1`: the logP turned out to be 2.14. Consider `O=C(c1ccccc1)N1CCC(C(F)(F)F)CC1`, for which the logP stood at 2.2.

For `O=C(c1ccccc1)N1CCCC1CF` (stereo not given), the logP was 1.75. In turn, `O=C(c1ccccc1)N1CC2COCC(C2)C1` had a logP of 0.84.

For the molecule `O=C(N[C@@H]1CC[C@H]1C(F)F)c1ccccc1`, the logP stood at 1.94.

Molecule `O=C(NC1CCCCCC1)c1ccccc1` had a logP of 3.03.

Regarding `O=C(c1ccccc1)N1CCCC1C(F)F` (stereo not given), the logP was 1.88. In the case of `O=C(c1ccccc1)N1CCC1CF` (stereo not given), the logP amounted to 1.4. On to `O=C(Nc1ccccc1)[C@@H]1CC[C@@H]1F`, for which the logP came out at 1.74. As for `O=C(Nc1ccccc1)[C@@H]1C[C@@H]2[C@H](C1)C2(F)F`, the logP amounted to 2.88. `CCC(F)(F)CNC(=O)c1ccccc1`: the logP was 2.04.
